Experimental data as given in the NIST ThermoML archive (doi:10.1021/acs.jced.8b00213).
Numbers after ± are expanded uncertainties.

What was measured:
[1] = xn = mol fraction of the nth substance listed; conditions: 100 kPa, Liquid, x1 = 0.25; for electrical conductivity: Alternating current cell with electrodes; for viscosity: Falling or rolling sphere viscometry; for speed of sound: Single path-length method; for mass density: Vibrating tube method
[2] = refractive index (Na D-line) (dimensionless); xn = mol fraction of the nth substance listed; conditions: 100 kPa, Liquid, Standard Abbe refractometry, x1 = 0.25

C[N+](C)(C)Cc1ccccc1.[Cl-] [trimethylbenzylammonium chloride] + OCCOCCOCCO
electrical conductivity ([1]; 283.15 K): 0.048 ± 0.002 S/m
viscosity ([1]; 283.15 K): 620.1 ± 53 mPa·s
speed of sound ([1]; 283.15 K): 1776.2 ± 3.8 m/s
mass density ([1]; 283.15 K): 1127.45 ± 11 kg/m3
electrical conductivity ([1]; 288.15 K): 0.063 ± 0.003 S/m
viscosity ([1]; 288.15 K): 470.8 ± 36 mPa·s
speed of sound ([1]; 288.15 K): 1761 ± 3.7 m/s
mass density ([1]; 288.15 K): 1124.08 ± 11 kg/m3
electrical conductivity ([1]; 293.15 K): 0.081 ± 0.003 S/m
viscosity ([1]; 293.15 K): 370.5 ± 25 mPa·s
speed of sound ([1]; 293.15 K): 1746.2 ± 3.7 m/s
mass density ([1]; 293.15 K): 1120.7 ± 11 kg/m3
electrical conductivity ([1]; 298.15 K): 0.101 ± 0.004 S/m
viscosity ([1]; 298.15 K): 308.8 ± 19 mPa·s
speed of sound ([1]; 298.15 K): 1731.4 ± 3.7 m/s
mass density ([1]; 298.15 K): 1117.31 ± 11 kg/m3
electrical conductivity ([1]; 303.15 K): 0.124 ± 0.005 S/m
viscosity ([1]; 303.15 K): 214.3 ± 11 mPa·s
speed of sound ([1]; 303.15 K): 1716.9 ± 3.7 m/s
mass density ([1]; 303.15 K): 1113.93 ± 11 kg/m3
electrical conductivity ([1]; 308.15 K): 0.152 ± 0.006 S/m
viscosity ([1]; 308.15 K): 155.7 ± 6.3 mPa·s
speed of sound ([1]; 308.15 K): 1702.8 ± 3.6 m/s
mass density ([1]; 308.15 K): 1110.57 ± 11 kg/m3
electrical conductivity ([1]; 313.15 K): 0.187 ± 0.008 S/m
viscosity ([1]; 313.15 K): 115.6 ± 3.8 mPa·s
speed of sound ([1]; 313.15 K): 1688.5 ± 3.6 m/s
mass density ([1]; 313.15 K): 1107.21 ± 11 kg/m3
electrical conductivity ([1]; 318.15 K): 0.226 ± 0.009 S/m
viscosity ([1]; 318.15 K): 87.8 ± 2.4 mPa·s
speed of sound ([1]; 318.15 K): 1674.6 ± 3.6 m/s
mass density ([1]; 318.15 K): 1103.87 ± 11 kg/m3
electrical conductivity ([1]; 323.15 K): 0.278 ± 0.011 S/m
viscosity ([1]; 323.15 K): 68.5 ± 1.6 mPa·s
speed of sound ([1]; 323.15 K): 1660.8 ± 3.5 m/s
mass density ([1]; 323.15 K): 1100.54 ± 11 kg/m3
electrical conductivity ([1]; 328.15 K): 0.325 ± 0.013 S/m
viscosity ([1]; 328.15 K): 54.9 ± 1.2 mPa·s
speed of sound ([1]; 328.15 K): 1647.2 ± 3.5 m/s
mass density ([1]; 328.15 K): 1097.22 ± 11 kg/m3
electrical conductivity ([1]; 333.15 K): 0.377 ± 0.015 S/m
viscosity ([1]; 333.15 K): 43.5 ± 1 mPa·s
speed of sound ([1]; 333.15 K): 1633.6 ± 3.5 m/s
mass density ([1]; 333.15 K): 1093.9 ± 11 kg/m3
electrical conductivity ([1]; 338.15 K): 0.44 ± 0.018 S/m
viscosity ([1]; 338.15 K): 34.3 ± 0.8 mPa·s
speed of sound ([1]; 338.15 K): 1620.1 ± 3.5 m/s
mass density ([1]; 338.15 K): 1090.59 ± 11 kg/m3
electrical conductivity ([1]; 343.15 K): 0.506 ± 0.02 S/m
viscosity ([1]; 343.15 K): 27.4 ± 0.6 mPa·s
speed of sound ([1]; 343.15 K): 1606.6 ± 3.5 m/s
mass density ([1]; 343.15 K): 1087.29 ± 11 kg/m3
refractive index ([2]; 283.15 K): 1.4923 ± 0.0011
refractive index ([2]; 288.15 K): 1.4908 ± 0.0011
refractive index ([2]; 293.15 K): 1.4894 ± 0.0011
refractive index ([2]; 298.15 K): 1.488 ± 0.0011
refractive index ([2]; 303.15 K): 1.4865 ± 0.0011
refractive index ([2]; 308.15 K): 1.4849 ± 0.0011
refractive index ([2]; 313.15 K): 1.4836 ± 0.0011
refractive index ([2]; 318.15 K): 1.4821 ± 0.0011
refractive index ([2]; 323.15 K): 1.4807 ± 0.0011
refractive index ([2]; 328.15 K): 1.4792 ± 0.0011
refractive index ([2]; 333.15 K): 1.4778 ± 0.0011
refractive index ([2]; 338.15 K): 1.4763 ± 0.0011
refractive index ([2]; 343.15 K): 1.4749 ± 0.0011
